Assay [1] in a line: Inhibition of the binding of [3H]NT to neurotensin (NT) receptor in mouse brain tissue. The assay is classed as tissue-based.
The test system of another assay is HT-29. Kind of assay: In vitro ability to inhibit the calcium mobilization induced by neurotensin (NT) in HT-29 cells. The conditions noted are these: Homo sapiens. Format: functional, cell-based. In general terms: Calcium assays in cells follow changes in intracellular calcium, usually with a dye or a luminescent sensor.

pIC50, pKi: −log10 of the molar value.

With `O=C(O)c1cccc(C(CC(=O)c2ccccc2)CC(=O)c2ccccc2)c1`, in assay [1], the negative-log Ki (pKi) (in general, −log10 of the Ki, conventionally taken in molar units) is below 5.00.

Turning to `COc1cccc(OC)c1-c1cc(C(=O)NC2(C(=O)O)C3CC4CC(C3)CC2C4)nn1-c1ccnc2cc(Cl)ccc12` (stereo not drawn) [REMINERTANT], in assay [1], the negative-log Ki (pKi) was 8.41. Besides, the pIC50 (in general, the IC50 on a negative log10 scale, so that one unit is a factor of ten) with HT-29 is 6.80.

The record behind these values is ChEMBL document CHEMBL1129854, “Novel small molecule neurotensin antagonists: 3-(1,5-diaryl-1,5-dioxopentan-3-yl)benzoic acids” (Bioorg Med Chem Lett, 1997).
